In patent publication US20050100983A1, “Cell-free methods for identifying compounds that affect toll-like receptor 9 (TLR9) signaling” (Coley Pharmaceutical GmbH, priority 2003, published 2005):
Ends that are not written are not given here. * marks the point of attachment. X1 = 2,3‑bis(palmitoyloxy)‑(2RS)‑propyl, CCCCCCCCCCCCCCCC(=O)OCC(C*)OC(=O)CCCCCCCCCCCCCCC; Palmitoyl = CCCCCCCCCCCCCCCC(=O)*

Tests used:
murine TLR2 = experiment: NF-κB luciferase assay, HEK 293 cells transfected with murine TLR2; format: cell-based; conditions: TLR2-transfected HEK 293 cells, 1 μg/ml Pam3Cys
[1] = biological target: T1, mTLR2ect (TLR2-Pam3Cys interaction) (Mus musculus, UniProt Q9QUN7); experiment: SPR biosensor analysis of TLR2-Pam3Cys binding; parameters: species or system murine; conditions: PHC as reference
T1 construct: mTLR2ect (aa 1-587); made in house
T1 sequence (Q9QUN7 25-587): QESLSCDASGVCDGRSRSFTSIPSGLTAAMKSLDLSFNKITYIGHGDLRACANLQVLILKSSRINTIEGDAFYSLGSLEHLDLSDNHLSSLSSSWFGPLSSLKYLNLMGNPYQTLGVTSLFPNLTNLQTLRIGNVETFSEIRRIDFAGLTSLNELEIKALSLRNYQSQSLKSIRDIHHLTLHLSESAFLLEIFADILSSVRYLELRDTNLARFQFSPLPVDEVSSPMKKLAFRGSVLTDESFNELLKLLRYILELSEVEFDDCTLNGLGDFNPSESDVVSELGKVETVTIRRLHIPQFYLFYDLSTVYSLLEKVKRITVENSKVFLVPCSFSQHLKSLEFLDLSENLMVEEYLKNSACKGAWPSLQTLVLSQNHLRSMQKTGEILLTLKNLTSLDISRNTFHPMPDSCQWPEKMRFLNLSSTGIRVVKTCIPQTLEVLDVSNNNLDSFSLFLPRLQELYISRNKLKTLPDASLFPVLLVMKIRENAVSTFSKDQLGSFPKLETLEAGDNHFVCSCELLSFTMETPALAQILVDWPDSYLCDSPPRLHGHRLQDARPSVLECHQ

murine TLR9 = experiment: NF-κB luciferase assay, HEK 293 cells transfected with murine TLR9; format: cell-based; conditions: TLR9-transfected HEK 293 cells, 1 μM CpG-DNA, inhibitor added 15 min prior to stimulation
Protocol: Activation is expressed as fold induction compared to no stimulation. NF-κB luciferase assay. For monitoring transient NF-κB activation, 3×10^6 HEK 293 cells were electroporated at 200 volt and 950 μF with 20 ng of a NF-κB luciferase reporter plasmid (kindly provided by Patrick Baeuerle, Munich, Germany) and 1 μg mTLR2 (kindly provided by Tularik, Inc., South San Francisco, USA), mTLR9, or mTLR9-mut expression plasmid. Cells were seeded at 10^5 cells per well and after overnight culture stimulated with 1 μM phosphorothioated CpG-DNA 1668 (SEQ ID NO:1), 1 μM non-CpG-DNA 1668GC (SEQ ID NO:3), 1 μg/ml Pam[…][…] or 1 μg/ml PHCK4 for further 8 hours. […] Stimulated cells were lysed using reporter lysis buffer (Promega, Mannheim, Germany) and lysates were assayed for luciferase activity using a Berthold luminometer (Wildbad, Germany) according to the manufacturer's instruction.

TLR9-CpG-DNA interaction = biological target: T2, TLR9-CpG-DNA interaction (Mus musculus, UniProt Q9EQU3); experiment: SPR biosensor analysis of inhibitors on TLR9-CpG-DNA interaction; format: binding, murine; conditions: for inhibition of binding of TLR9 to CpG-DNA: SPR, 200 nM TLR9, immobilized CpG-DNA 1668
T2 construct: mTLR9ect (aa 1-816); made in house
T2 sequence (Q9EQU3 26-816): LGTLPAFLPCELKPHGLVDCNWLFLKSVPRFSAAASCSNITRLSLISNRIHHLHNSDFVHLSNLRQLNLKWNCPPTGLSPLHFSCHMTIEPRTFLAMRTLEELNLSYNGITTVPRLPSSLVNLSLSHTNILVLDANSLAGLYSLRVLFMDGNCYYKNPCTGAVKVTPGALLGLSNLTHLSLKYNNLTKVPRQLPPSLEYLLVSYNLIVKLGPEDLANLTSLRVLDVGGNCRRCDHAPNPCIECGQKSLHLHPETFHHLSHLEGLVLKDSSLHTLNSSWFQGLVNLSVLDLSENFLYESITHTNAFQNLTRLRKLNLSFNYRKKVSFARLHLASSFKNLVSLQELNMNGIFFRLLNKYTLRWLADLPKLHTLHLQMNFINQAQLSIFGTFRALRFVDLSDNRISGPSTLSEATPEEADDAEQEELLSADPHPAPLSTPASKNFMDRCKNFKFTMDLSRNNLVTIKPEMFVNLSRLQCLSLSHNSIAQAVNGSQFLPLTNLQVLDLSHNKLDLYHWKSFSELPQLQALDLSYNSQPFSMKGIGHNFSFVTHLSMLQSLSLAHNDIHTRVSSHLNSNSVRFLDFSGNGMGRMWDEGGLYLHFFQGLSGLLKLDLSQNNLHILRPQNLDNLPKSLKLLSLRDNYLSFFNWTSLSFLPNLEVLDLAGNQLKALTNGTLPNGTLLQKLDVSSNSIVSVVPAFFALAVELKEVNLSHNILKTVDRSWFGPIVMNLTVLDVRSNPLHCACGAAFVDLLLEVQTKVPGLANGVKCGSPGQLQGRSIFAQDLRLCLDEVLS
Protocol: Biotinylated CpG-DNA 1668 (SEQ ID NO:1) and non-CpG-DNA 1668GC (SEQ ID NO:3) were immobilized on streptavidin sensor chip flow cells 1 and 2, respectively.
FIG. 2B is a graph depicting SPR biosensor analysis of quinoquine (QC) on TLR9-PAMP interaction. Biotinylated CpG-DNA 1668 (SEQ ID NO:1) and non-CpG-DNA 1668GC (SEQ ID NO:3) were immobilized on streptavidin sensor chip flow cells 1 and 2, respectively. 200 nM TLR9 and indicated concentrations of quinoquine were injected and sensorgrams recorded.
SPR biosensor analysis. Real-time binding of TLR9 or TLR2 was measured by surface plasmon resonance biosensor technology using the BiaCore X system (Uppsala, Sweden). For analysis of TLR9 and TLR2 interaction, biotinylated CpG-DNA and non-CpG-DNA, or biotinylated Pam3CysK4 and PHCK4, respectively, were loaded in running buffer (50 mM MES, 150 mM NaCl, 1 mM MgCl2 at pH 6.5) on SA chips precoated with streptavidin (Biacore AB, Uppsala, Sweden). Non-CpG-DNA or PHCK4 (Wiesmuller K H et al. (1989) Vaccine 7:29-33) served as reference for CpG-DNA and Pam3CysK4 interaction (structure or sequence in Table 1). […] TLR proteins were introduced at 200 nM or as indicated in 40 μl running buffer at a flow rate of 10 μl/min. Binding was measured at 25° C. for 750 s (delay time 300 s). […] Sensorgrams were recorded and kinetic data were calculated by the BiaCore Evaluation program (Biacore, version 3.0.1). Regeneration of the chip was performed by injection of 10 μl 50 mM NaOH, 1 M NaCl and extensive re-equilibration.

Binding of TLR2 to Pam3Cys [1] | Molecule | inhibition of Pam3Cys-driven cellular activation (murine TLR2) | inhibition of TLR2-Pam3Cys binding ([1]; 200 nM TLR2, immobilized Pam3Cys) | inhibition of TLR9-driven NF-κB activation (murine TLR9) | potency in blocking TLR9-CpG-DNA interaction and cellular activation, compared with chloroquine (TLR9-CpG-DNA interaction; SPR and TLR9-transfected HEK 293 cells) | inhibition of binding of TLR9 to CpG-DNA (TLR9-CpG-DNA interaction)
 | CCN(CC)CCCC(C)Nc1c2ccc(Cl)cc2nc2ccc(OC)cc12 (stereo not drawn) [quinacrine] | inhibited neither | inhibited neither | dose-dependently inhibit | more potent | dose-dependently inhibit
 | CCN(CC)CCCC(C)Nc1ccnc2cc(Cl)ccc12 (stereo not drawn) [chloroquine] | inhibited neither |  | dose-dependently inhibit |  | dose-dependently inhibit
specific | S-(2,3-bis(palmitoyloxy)-(2-RS)-propyl)-N-palmitoyl-(R)-Cys-(S)-Ser-(S)-Lys(4) (Palmitoyl-C(X1)SKKKK; also: biotinylated (site not given here)) [Pam3Cys] |  |  |  |  | 
